Source: the supplement of paper PMC10307832

What was measured:
Assay in all cases: relative viability (nuclei count vs DMSO), 5 days (fraction); higher = more cells survive
MK-2206 + Vorinostat = compound: NC1(c2ccc(-c3nc4ccn5c(=O)[nH]nc5c4cc3-c3ccccc3)cc2)CCC1 [MK-2206] + O=C(CCCCCCC(=O)Nc1ccccc1)NO [Vorinostat] (partner 1 µM)
Method in brief: (§1)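 Lung cancer cell lines were pin-tool dosed in 1536-well plates on the day after seeding, with either a lone drug or a fixed anchor-drug dose plus five library-drug doses (not always all listed) in √10 steps. Nuclei were counted on 4× images after 5 days. Relative viability is the ratio of treated-well to vehicle-well nuclei counts, with each value a median of duplicate plates.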

Pictilisib + Lapatinib = compound: CS(=O)(=O)N1CCN(Cc2cc3nc(-c4cccc5[nH]ncc45)nc(N4CCOCC4)c3s2)CC1 [Pictilisib] + CS(=O)(=O)CCNCc1ccc(-c2ccc3ncnc(Nc4ccc(OCc5cccc(F)c5)c(Cl)c4)c3c2)o1 [Lapatinib] (partner 2 µM)
Method in brief: as §1

Pictilisib = compound: CS(=O)(=O)N1CCN(Cc2cc3nc(-c4cccc5[nH]ncc45)nc(N4CCOCC4)c3s2)CC1 [Pictilisib]
Method in brief: (§2)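 In 1536-well plates, lung cancer cell lines rested overnight at 37 °C before five library-drug doses (not always all listed), √10 apart, were pinned onto vehicle-anchored plates. Nuclei were counted with MetaXpress from 4× Hoechst images taken after 5 days without medium change. Viability compares treated-well with vehicle-well nuclei as a median over plates, and plates needed control CV below 25% plus at least one doubling to pass.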

MK-2206 = compound: NC1(c2ccc(-c3nc4ccn5c(=O)[nH]nc5c4cc3-c3ccccc3)cc2)CCC1 [MK-2206]
Method in brief: as §2

Cell Line	relative viability (MK-2206 + Vorinostat; first compound 0.01 µM)	relative viability (MK-2206 + Vorinostat; first compound 0.03162 µM)	relative viability (MK-2206 + Vorinostat; first compound 0.3162 µM)	relative viability (MK-2206 + Vorinostat; first compound 1 µM)	relative viability (Pictilisib + Lapatinib; first compound 0.02 µM)	relative viability (Pictilisib + Lapatinib; first compound 0.06325 µM)	relative viability (Pictilisib + Lapatinib; first compound 0.6325 µM)	relative viability (Pictilisib + Lapatinib; first compound 2 µM)	relative viability (Pictilisib; 0.02 µM)	relative viability (Pictilisib; 0.06325 µM)	relative viability (Pictilisib; 0.6325 µM)	relative viability (Pictilisib; 1 µM, anchor plate)	relative viability (Pictilisib; 2 µM)	relative viability (MK-2206; 0.01 µM)	relative viability (MK-2206; 0.03162 µM)	relative viability (MK-2206; 0.3162 µM)	relative viability (MK-2206; 1 µM)
LXF-289	0.736	0.797	0.867	0.78	0.91	0.929	0.925	0.793	0.996	1.01	1.08	0.814	0.92	0.995	1.07	1.03	1.09
NCI-H460	0.677	0.785	0.717	0.599	1.08	1.02	0.548	0.118	0.993	1.02	0.933	0.381	0.353	0.997	1.03	1.02	0.921
NCI-H1792	–	–	–	–	0.923	0.928	0.809	0.387	0.762	1.1	0.618	0.31	0.236	0.941	0.869	0.971	0.677
EMC-BAC-2	0.468	0.442	0.442	0.392	0.906	0.924	0.735	0.575	1.21	1.04	0.727	0.555	0.565	0.95	0.959	0.926	0.871
CAL-12T	0.672	0.8	0.748	0.768	0.6	0.638	0.653	0.468	1.12	1.12	1.03	0.475	0.589	0.939	1.06	1.07	0.953
ChaGo-K-1	0.754	0.856	0.763	0.702	–	–	–	–	1.04	1.02	0.893	0.783	0.815	1.02	1.14	0.968	0.866
COR-L 105	0.822	0.676	0.769	0.796	0.394	0.401	0.338	0.325	1.1	0.974	0.871	0.391	0.555	0.854	0.958	0.934	0.801
NCI-H1944	0.536	0.547	0.556	0.433	0.969	0.753	0.597	0.402	1.15	0.879	0.595	0.354	0.32	1.03	1.01	0.965	0.987
NCI-H2009	0.759	0.739	0.708	0.766	1.06	0.932	0.858	0.844	1.03	1.04	0.967	0.783	0.679	0.97	1.04	1.02	0.993
SW 900	0.527	–	0.554	0.299	–	–	–	–	1.02	0.93	0.632	–	0.565	0.862	0.731	0.866	0.629
